Tests used:
rats = assay: Clinical symptoms of flushing over 28 days; assay type: in vivo
Source text: (§1) Additionally, clinical symptoms of “flushing” were not observed over 28 days in rats or dogs.

dogs = assay: Clinical symptoms of flushing over 28 days; assay type: in vivo
Source text: as §1

healthy adult volunteers = assay: Human clinical trial, single escalating oral doses: triglycerides; assay type: in vivo; settings: preliminary, FIG. 22
Protocol: A randomized, double-blind, placebo-controlled study is performed with sequential escalating doses by cohort with observations for 30 hours post dosing and return visit on 8th day. Study subjects are healthy male and female adult volunteers, age 18-60 years, with LDL-C>130 mg/dL and weight <85 kg. Subjects are randomly assigned to receive study drug or placebo.
Five periods of single dose escalation, with 8 subjects per cohort (6 drug: 2 placebo) involve a total 40 subjects. Appropriately blinded matching placebos are provided. Cohort 1 receives 500 mg of ARI-001 formulated as a single oral tablet, plus eleven placebo tablets; Cohort 2, 1000 mg taken as two 500 mg tablets of ARI-001, plus ten placebo tablets; Cohort 3, 2000 mg taken as four 500 mg tablets of ARI-001, plus eight placebo tablets; Cohort 4, 4000 mg taken as eight 500 mg tablets of ARI-001, plus four placebo tablets; Corhort 5, 6000 mg taken as twelve 500 mg tablets of ARI-001. Placebo-only subjects take twelve placebo tablets. Each tablet is a compressed, film-coated tablet suitable for oral administration. […]

[1] = Multiple administration (30 days) pharmacokinetic study in wild type mice; assay type: in vivo, C57BL/6 mice; settings: 996, 1493, 2240, 3360 mg/kg oral daily 30 days
Protocol: Wild type C57BL/6 mice were dosed with ARI-001 in solution via oral gavage daily for 30 consecutive days. Over the course of five 24-hour periods, blood was collected, and the resultant plasma was analyzed for concentrations of ARI-001. Four doses were used: 996 mg/kg, 1493 mg/kg, 2240 mg/kg, and 3360 mg/kg. […] However, these values were time-independent, as there was no trend observed between these parameters and days of administration. See FIGS. 15A-15D and FIGS. 16A-16B.

GPR109A = biological target: T1, GPR109A (Homo sapiens, UniProt Q8TDS4); assay: PathHunter eXpress β-arrestin recruitment assay; assay type: cell-based; settings: concentrations up to 10 mM, 90 minutes
T1 construct: β-galactosidase enzyme fragment (ProLink-type complementation tag); expressed in transfected cells
Source text: Walters R W et al. (2009) J Clin Invest 119:1312-21. […] G protein-coupled receptor (GPCR) activity was detected by measuring the interaction of β-arrestin with the activated GPCR using […] enzyme fragment complementation.

[2] = Storage stability of ARI-001 at 50° C., LC-MS; assay type: physicochemical; settings: unregulated humidity
Protocol: ARI-001 was synthesized as described above. Purity was determined independently before use in experiments by examination via liquid chromatography-mass spectroscopy (LC-MS). A sample of material was dissolved in water/acetonitrile and injected onto a Discovery C-18 reverse phase column. The mobile phase began as 2%:98% acetonitrile:water, which was held for three minutes, after which a linear gradient was started that ran over 6 minutes, increasing the percent of acetonitrile until a final ratio of 98%:2% acetonitrile:water was reached. This final ratio was held for 3 minutes. The major peak was identified as ARI-001.
Stability was determined by storing ARI-001 under 50° C. with no specified humidity requirement. At various time points over the course of 3 months (90 days), a small sample (<5 mg) of ARI-001 was collected for analysis using LC-MS under the same conditions as used for purity determination (vide supra).

[3] = Pharmacokinetics of multiple administrations to fasted monkeys; assay type: in vivo, Macaque monkeys; settings: 288 mg/kg oral gavage once per day, seven days
Protocol: ARI-001 was administered to monkeys via oral gavage once per day for a total of seven days. Blood samples were collected after the first and after the last administrations to measure plasma concentrations of ARI-001.

T1 sequence (Q8TDS4 whole entry, the tested form may be a part): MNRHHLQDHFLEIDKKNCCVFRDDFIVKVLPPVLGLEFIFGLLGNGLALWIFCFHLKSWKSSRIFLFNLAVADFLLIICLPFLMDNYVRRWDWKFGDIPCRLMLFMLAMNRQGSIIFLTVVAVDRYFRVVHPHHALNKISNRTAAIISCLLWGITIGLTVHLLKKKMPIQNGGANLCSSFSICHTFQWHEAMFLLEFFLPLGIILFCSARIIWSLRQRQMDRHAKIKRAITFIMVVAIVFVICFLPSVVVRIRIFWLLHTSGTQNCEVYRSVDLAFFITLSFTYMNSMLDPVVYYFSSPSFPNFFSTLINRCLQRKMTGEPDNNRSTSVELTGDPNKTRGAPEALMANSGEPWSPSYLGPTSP

SMILES: O=C(O)c1ccc(CCN2CCOCC2)nc1 [ARI-001]
- clinical symptoms of flushing (rats): not observed
- clinical symptoms of flushing (dogs): not observed
- change in triglycerides 4 hours after dosing (healthy adult volunteers): dose response for triglyceride lowering
- Cmax levels and AUC as a function of days of administration [1]: time-independent
- Cmax levels and total 24-hour exposure (AUC) as a function of dose [1]: dose-dependent
- recruitment of β-arrestin to the membrane of cells expressing GPR109A (GPR109A): failed to recruit β-arrestin
- purity remaining on storage ([2]; 65 days): 98.9%
- purity remaining on storage ([2]; 90 days): 95.9%
- Cmax day 1 versus day 7 [3]: higher on day 7 than on day 1
- concentrations 24 hours after first or last dose [3]: essentially identical
- plasma concentrations day 1 versus day 7 [3]: very little difference

From patent US8937063B2 (Trustees of Tufts College, priority 2010, dated 2015)
